Measurements: patent publication US8759304B2, “Compositions and methods for increasing telomerase activity” (Telomerase Activation Science, Inc., priority 2003, dated 2014)

Experiments:
[1] = system: telomerase activity in HEKneoP cells (neonatal keratinocytes); assay: TRAP assay of telomerase activity in HEKneoP cells (neonatal keratinocytes); format: cell-based, human; settings: for MEC (minimum effective concentration producing telomerase activity twice that of DMSO control): 100% greater than DMSO control
[2] = system: Sprague-Dawley rats; assay: Systemic tolerance after single intravenous injection in rats; format: in vivo; settings: single intravenous injections up to 10 mg/kg
Protocol: (§1) Studies in support of the invention indicate that the compounds of formula I-III have excellent bioavailability and low toxicity. For example, a representative compound, cycloastragenol (2), was negative for reverse bacterial mutation potential in the Ames test, employing Salmonella Typhimurium tester strains TA98, TA100, TA1535, TA 1537 and E. coli tester strain WP2 uvrA, at levels up to 5000 μg/plate. It was well-tolerated systemically in Sprague-Dawley rats, after single intravenous injections up to 10 mg/kg.

[3] = system: Salmonella Typhimurium tester strains TA98, TA100, TA1535, TA 1537 and E. coli tester strain WP2 uvrA; assay: Ames test (reverse bacterial mutation); settings: levels up to 5000 μg/plate
Protocol: as §1

[4] = system: young neonatal keratinocytes; assay: Scratch assay (wound healing activity), young neonatal keratinocytes; format: cell-based; settings: FIG. 5, 1 at 0.1 μg/ml, 2 at 0.01 μM; for WHtest (wound healing activity): WH=100−[100×Wn/W0], WHcntrl 52.6
Protocol: (§2) The compounds of formula I-III can be used to promote healing of wounds, burns, abrasions or other acute or chronic conditions of the epidermis, as discussed further below. As used herein, “wound healing activity as measured in a scratch assay” refers to the activity as measured in keratinocytes or fibroblasts according to the following protocol, and expressed as the value of WH shown in the formula below.
(§3) Cells are plated in flasks (5×10^5 cells per flask) and cultured for two days in a humidified chamber at 5% CO2, 37° C. To create the “wound”, a 2 ml plastic pipette is gently dragged to “scratch” the cell surface. The ideal wound is approximately 2-3 mm wide and 50 mm long (along the long axis of the tissue culture flask). The cells are retreated with medium containing either vehicle (DMSO; control sample) or test compositions at multiple concentrations. A wound area is identified, the flask marked, and the appearance of the cells documented photographically over 3-4 days continued culturing of the cells.
(§4) Amount of wound closure is determined by measuring the width of the wound over time for compound-treated samples relative to vehicle-treated or other control cells. Measurements are made from the photographs taken for each of the samples on days 1 (immediately after scratching), 2, 3, and 4. Percentage of wound healing (also expressed as “wound healing activity”) is calculated by the following formula: WH=100−[100×Wn/W0], where Wn is the width of the wound on day n and W0 is the width of the wound on day one (i.e. immediately after scratching).
(§5) Wound healing activity of invention compounds 1 (astragaloside IV) and 2 (cycloastragenol) was evaluated in aging keratinocytes, via a scratch assay as described above.

[5] = system: aging neonatal keratinocytes; assay: Scratch assay (wound closure), aging neonatal keratinocytes; format: cell-based; settings: FIG. 7; compared with 50 ng/mL PDGF
Protocol: as §2
Cells are plated in flasks (5×10^5 cells per flask) and cultured for two days in a humidified chamber at 5% CO2, 37° C. To create the “wound”, a 2 ml plastic pipette is gently dragged to “scratch” the cell surface. The ideal wound is approximately 2-3 mm wide and 50 mm long (along the long axis of the tissue culture flask). The cells are retreated with medium containing either vehicle (DMSO; control sample) or test compositions at multiple concentrations. […]
Amount of wound closure is determined by measuring the width of the wound over time for compound-treated samples relative to vehicle-treated or other control cells. […] Percentage of wound healing (also expressed as “wound healing activity”) is calculated by the following formula: WH=100−[100×Wn/W0], where Wn is the width of the wound on day n and W0 is the width of the wound on day one (i.e. immediately after scratching). […]

[6] = system: aging adult keratinocytes; assay: Scratch assay (wound healing activity), aging adult keratinocytes; format: cell-based; settings: FIG. 4; for Approx. wound width Day1 test: 0.1 μg/ml (about 0.13 μM) 1
Protocol: as §2, §3, §4, §5
(GRN163 is a telomerase inhibitor oligonucleotide that targets the template region of the telomerase RNA component. Specifically, GRN 163 is a 13-mer N3′→P5′ thiophosphoramidate oligonucleotide, described in detail in PCT Pubn. No. WO 01/18015. GRN137227 is a 13-mer N3′→P5′ thiophosphoramidate control oligonucleotide having a mismatched sequence.)

[7] = day 1 immediately after scratching

## EGF: epidermal growth factor
[1]; cells treated with 10 nM EGF
  telomerase activity: about 200%

## astragaloside IV 16-one [Compound 4]
[1]
  MEC (minimum effective concentration producing telomerase activity twice that of DMSO control): 0.03 µM

## CC(C)(O)[C@@H]1CC[C@](C)([C@H]2[C@@H](O)C[C@@]3(C)[C@@H]4C[C@H](O)[C@H]5C(C)(C)[C@@H](O)CC[C@@]56C[C@@]46CC[C@]23C)O1 [Compound 2, cycloastragenol]
[1]
  MEC (minimum effective concentration producing telomerase activity twice that of DMSO control): 0.01 µM
[1]; at 0.1 μM in DMSO, maximum, decreased with further increases in concentration
  telomerase activity: about 300 % of control
[2]; males or females
  changes in behavior (eating, drinking), gross weight, organ weights, hematology or clinical chemistry: No significant dose-dependent changes
[2]
  systemic tolerance: well-tolerated
[3]
  reverse bacterial mutation potential: negative
[4]
  Approx. wound width Day1 test: 2 arbitrary units
  WHtest (wound healing activity): 90.5
[4]; [7]
  Approx. wound width Day1 test: 21 arbitrary units

## CC(C)=CCC[C@](C)(O)[C@H]1CC[C@]2(C)[C@@H]1[C@H](O)C[C@@H]1[C@@]3(C)CC[C@H](O)C(C)(C)[C@@H]3[C@@H](O[C@@H]3O[C@H](CO)[C@@H](O)[C@H](O)[C@H]3O)C[C@]12C [Compound 8, ginsenoside RH1]
[1]
  MEC (minimum effective concentration producing telomerase activity twice that of DMSO control): 10 µM

## CC1(C)C2=CC[C@@H]3[C@@](C)(CC[C@]4(C)[C@@H]([C@@]5(C)CC[C@@H](C(C)(C)O)O5)[C@@H](O)C[C@@]34C)C2=CCC1O (stereo partly drawn) [Compound 5, 20R,24S-epoxy-3β,16β,25-trihydroxy-9β-methyl-19-norlanost-1,5-diene]
[1]
  MEC (minimum effective concentration producing telomerase activity twice that of DMSO control): 0.10 µM

## CC(C)(O)[C@@H]1CC[C@](C)([C@H]2[C@@H](O)C[C@@]3(C)[C@@H]4C[C@H](O)[C@H]5C(C)(C)[C@@H](O)CC[C@]5(C)C4=CC[C@]23C)O1 [Compound 3, astragenol]
[1]
  MEC (minimum effective concentration producing telomerase activity twice that of DMSO control): 0.03 µM

## CC(C)(O)[C@@H]1CC[C@](C)([C@H]2[C@@H](O)C[C@@]3(C)[C@@H]4C[C@H](O)[C@H]5C(C)(C)C(O[C@@H]6OC[C@@H](O)[C@H](O)[C@H]6O)CCC56C[C@@]46CC[C@]23C)O1 (stereo partly drawn) [Compound 7, cycloastragenol 3-β-D-xylopyranoside]
[1]
  MEC (minimum effective concentration producing telomerase activity twice that of DMSO control): 3.2 µM

## CC(C)(O)[C@@H]1CC[C@](C)([C@H]2[C@@H](O)C[C@@]3(C)[C@@H]4C[C@H](O[C@@H]5O[C@H](CO)[C@@H](O)[C@H](O)[C@H]5O)[C@H]5C(C)(C)[C@@H](O[C@@H]6OC[C@@H](O)[C@H](O)[C@H]6O)CC[C@@]56C[C@@]46CC[C@]23C)O1 [Compound 1, astragaloside IV]
[5]
  wound closure as percent of control, effectiveness: comparable to that of PDGF
[1]
  MEC (minimum effective concentration producing telomerase activity twice that of DMSO control): 0.01 µM
[1]; at 1.0 μM in DMSO, maximum, decreased at higher concentration up to 10 μM
  telomerase activity: about 360 % of control
[6]; 0.1 μg/ml 1, WH=100−[100×Wn/W0], WHcntrl 54.5
  WHtest (wound healing activity): 100
[6]
  Approx. wound width Day1 test: 0 arbitrary units
[6]; [7]
  Approx. wound width Day1 test: 17 arbitrary units
[6]; 0.1 μg/ml (about 0.13 μM) 1 in DMSO, control still had sizable wound at day 4
  state of scratch wound in treated cells: confluent at day 4
[4]
  Approx. wound width Day1 test: 0 arbitrary units
  WHtest (wound healing activity): 100
[4]; [7]
  Approx. wound width Day1 test: 18 arbitrary units

## CC(C)(O)[C@@H]1CC[C@](C)([C@H]2[C@@H](O)C[C@@]3(C)[C@@H]4C[C@H](OC5O[C@H](CO)[C@@H](O)[C@H](O)[C@H]5O)[C@H]5C(C)(C)C(O)CCC56C[C@@]46CC[C@]23C)O1 (stereo partly drawn) [Compound 6, cycloastragenol 6-β-D-glucopyranoside]
[1]
  MEC (minimum effective concentration producing telomerase activity twice that of DMSO control): 3.2 µM
